Test results from PubChem BioAssay (NCI).
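Compound exposure: 48 hours, 5 concentrations, 96-well plates. Here, GI50 denotes the concentration required for 50% inhibition of growth. At the TGI there is no net growth.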

Legend:
Test in all cases: NCI tumour cell line growth inhibition, 48 h
MDA-MB-435 = system: MDA-MB-435
SK-OV-3 ovarian = system: SK-OV-3 ovarian
LOX IMVI melanoma = system: LOX IMVI melanoma
K-562 leukemia = system: K-562 leukemia
UACC-257 melanoma = system: UACC-257 melanoma
HCT-116 colon = system: HCT-116 colon
OVCAR-4 ovarian = system: OVCAR-4 ovarian
ACHN renal = system: ACHN renal
HL-60(TB) leukemia = system: HL-60(TB) leukemia
HCC-2998 colon = system: HCC-2998 colon
HS 578T breast = system: HS 578T breast
HOP-62 NSCLC = system: HOP-62 NSCLC
MDA-MB-468 breast = system: MDA-MB-468 breast
IGROV1 ovarian = system: IGROV1 ovarian
HT29 colon = system: HT29 colon
SNB-19 CNS = system: SNB-19 CNS
SN12C renal = system: SN12C renal
OVCAR-5 ovarian = system: OVCAR-5 ovarian
SK-MEL-2 melanoma = system: SK-MEL-2 melanoma
786-0 renal = system: 786-0 renal
BT-549 breast = system: BT-549 breast
SNB-75 CNS = system: SNB-75 CNS
NCI-H522 lung = system: NCI-H522 lung
HOP-92 NSCLC = system: HOP-92 NSCLC
MDA-MB-231 breast = system: MDA-MB-231 breast
OVCAR-3 ovarian = system: OVCAR-3 ovarian
SK-MEL-5 melanoma = system: SK-MEL-5 melanoma
M14 melanoma = system: M14 melanoma
A549 NSCLC = system: A549 NSCLC
UO-31 renal = system: UO-31 renal
OVCAR-8 ovarian = system: OVCAR-8 ovarian
SK-MEL-28 melanoma = system: SK-MEL-28 melanoma
A498 renal = system: A498 renal
TK-10 renal = system: TK-10 renal
SW-620 colon = system: SW-620 colon
T-47D breast = system: T-47D breast
NCI/ADR-RES ovarian = system: NCI/ADR-RES ovarian
MOLT-4 leukemia = system: MOLT-4 leukemia
DU-145 prostate = system: DU-145 prostate
NCI-H226 lung = system: NCI-H226 lung
MCF7 breast = system: MCF7 breast
PC-3 prostate = system: PC-3 prostate
SF-295 CNS = system: SF-295 CNS
EKVX NSCLC = system: EKVX NSCLC
RXF 393 renal = system: RXF 393 renal
SR leukemia = system: SR leukemia
KM12 colon = system: KM12 colon
CCRF-CEM leukemia = system: CCRF-CEM leukemia
SF-268 CNS = system: SF-268 CNS
CAKI-1 renal = system: CAKI-1 renal
HCT-15 colon = system: HCT-15 colon
COLO 205 colon = system: COLO 205 colon
SF-539 CNS = system: SF-539 CNS
UACC-62 melanoma = system: UACC-62 melanoma
U251 CNS = system: U251 CNS
MALME-3M melanoma = system: MALME-3M melanoma
NCI-H23 lung = system: NCI-H23 lung

CN1CCN(Cc2ccc(C(=O)Nc3cccc(Nc4ccc5c(O)cccc5n4)c3)cc2C(F)(F)F)CC1
GI50 (MDA-MB-435): 1.78 µM
TGI (MDA-MB-435): 3.78 µM
GI50 (SK-OV-3 ovarian): 14.4 µM
TGI (SK-OV-3 ovarian): 29.2 µM
GI50 (LOX IMVI melanoma): 1.65 µM
TGI (LOX IMVI melanoma): 3.01 µM
GI50 (K-562 leukemia): 2.42 µM
TGI (K-562 leukemia): 24.5 µM
GI50 (UACC-257 melanoma): 1.92 µM
TGI (UACC-257 melanoma): 3.86 µM
GI50 (HCT-116 colon): 2.7 µM
TGI (HCT-116 colon): > 100 µM
GI50 (OVCAR-4 ovarian): 7.39 µM
TGI (OVCAR-4 ovarian): 21 µM
GI50 (ACHN renal): 2.07 µM
TGI (ACHN renal): 4.92 µM
GI50 (HL-60(TB) leukemia): 2.47 µM
TGI (HL-60(TB) leukemia): 5.67 µM
GI50 (HCC-2998 colon): 1.89 µM
TGI (HCC-2998 colon): 3.36 µM
GI50 (HS 578T breast): 2.96 µM
TGI (HS 578T breast): 21.8 µM
GI50 (HOP-62 NSCLC): 3 µM
TGI (HOP-62 NSCLC): 8.85 µM
GI50 (MDA-MB-468 breast): 1.62 µM
TGI (MDA-MB-468 breast): 3.16 µM
GI50 (IGROV1 ovarian): 4.7 µM
TGI (IGROV1 ovarian): 17 µM
GI50 (HT29 colon): 2.06 µM
TGI (HT29 colon): 4.41 µM
GI50 (SNB-19 CNS): 2.39 µM
TGI (SNB-19 CNS): 5.15 µM
GI50 (SN12C renal): 2.34 µM
TGI (SN12C renal): 6.03 µM
GI50 (OVCAR-5 ovarian): 3.24 µM
TGI (OVCAR-5 ovarian): 14.4 µM
GI50 (SK-MEL-2 melanoma): 1.92 µM
TGI (SK-MEL-2 melanoma): 3.68 µM
GI50 (786-0 renal): 2.11 µM
TGI (786-0 renal): 4.28 µM
GI50 (BT-549 breast): 15.6 µM
TGI (BT-549 breast): 30.2 µM
GI50 (SNB-75 CNS): 1.85 µM
TGI (SNB-75 CNS): 13.7 µM
GI50 (NCI-H522 lung): 1.93 µM
TGI (NCI-H522 lung): 3.97 µM
GI50 (HOP-92 NSCLC): 1.32 µM
TGI (HOP-92 NSCLC): 5.8 µM
GI50 (MDA-MB-231 breast): 1.62 µM
TGI (MDA-MB-231 breast): 3.75 µM
GI50 (OVCAR-3 ovarian): 3.1 µM
TGI (OVCAR-3 ovarian): 8 µM
GI50 (SK-MEL-5 melanoma): 1.68 µM
TGI (SK-MEL-5 melanoma): 3.07 µM
GI50 (M14 melanoma): 2.21 µM
TGI (M14 melanoma): 5.67 µM
GI50 (A549 NSCLC): 4.5 µM
TGI (A549 NSCLC): 20 µM
GI50 (UO-31 renal): 1.99 µM
TGI (UO-31 renal): 4.29 µM
GI50 (OVCAR-8 ovarian): 3.56 µM
TGI (OVCAR-8 ovarian): 14 µM
GI50 (SK-MEL-28 melanoma): 1.77 µM
TGI (SK-MEL-28 melanoma): 3.21 µM
GI50 (A498 renal): 17.5 µM
TGI (A498 renal): 33.3 µM
GI50 (TK-10 renal): 3.36 µM
TGI (TK-10 renal): 13.1 µM
GI50 (SW-620 colon): 2.24 µM
TGI (SW-620 colon): 4.18 µM
GI50 (T-47D breast): 10.7 µM
TGI (T-47D breast): 26.4 µM
GI50 (NCI/ADR-RES ovarian): 3.45 µM
TGI (NCI/ADR-RES ovarian): 12 µM
GI50 (MOLT-4 leukemia): 1.86 µM
TGI (MOLT-4 leukemia): 5.29 µM
GI50 (DU-145 prostate): 4.68 µM
TGI (DU-145 prostate): 17.7 µM
GI50 (NCI-H226 lung): 19.2 µM
TGI (NCI-H226 lung): 41.7 µM
GI50 (MCF7 breast): 1.74 µM
TGI (MCF7 breast): 3.41 µM
GI50 (PC-3 prostate): 2.53 µM
TGI (PC-3 prostate): 14.6 µM
GI50 (SF-295 CNS): 1.65 µM
TGI (SF-295 CNS): 3.16 µM
GI50 (EKVX NSCLC): 3.75 µM
TGI (EKVX NSCLC): 14.1 µM
GI50 (RXF 393 renal): 1.66 µM
TGI (RXF 393 renal): 3.58 µM
GI50 (SR leukemia): 4.39 µM
TGI (SR leukemia): > 100 µM
GI50 (KM12 colon): 2.3 µM
TGI (KM12 colon): 5.23 µM
GI50 (CCRF-CEM leukemia): 2.91 µM
TGI (CCRF-CEM leukemia): > 100 µM
GI50 (SF-268 CNS): 3.81 µM
TGI (SF-268 CNS): 19 µM
GI50 (CAKI-1 renal): 2.13 µM
TGI (CAKI-1 renal): 5.17 µM
GI50 (HCT-15 colon): 1.82 µM
TGI (HCT-15 colon): 3.54 µM
GI50 (COLO 205 colon): 1.99 µM
TGI (COLO 205 colon): 3.94 µM
GI50 (SF-539 CNS): 1.67 µM
TGI (SF-539 CNS): 3.08 µM
GI50 (UACC-62 melanoma): 1.73 µM
TGI (UACC-62 melanoma): 3.49 µM
GI50 (U251 CNS): 2.38 µM
TGI (U251 CNS): 5.2 µM
GI50 (MALME-3M melanoma): 1.67 µM
TGI (MALME-3M melanoma): 3.12 µM
GI50 (NCI-H23 lung): 2.26 µM
TGI (NCI-H23 lung): 4.79 µM
